Structures can show the parent of a compound that is named as a salt. Where two headings read alike, the source gives them in different places.
What was measured:
[1] = tested on: influenza virus (A/PR/8 strain); assay: microbe, parasite or virus in culture; format: cell-based; details: unidentified influenza virus, PR/8, MDCK, read-out: Antiviral Activitiy (ΔTCID₅₀)(log₁₀)
HSV-1 (Miyama strain) = assay: microbe, parasite or virus in culture; format: cell-based, herpes simplex virus type 1
influenza virus [2] = details: from "Acta Virol.", 28, pp. 501-507 (1984); cited from earlier work
influenza A virus = details: prior art statement; cited from earlier work
influenza B virus = details: prior art statement; cited from earlier work
influenza virus [3] = details: prior art statement; clinical efficacy not yet verified; cited from earlier work
herpes virus = details: from "J. Gen. Virol.", 67, pp. 1115-1122 (1986); cited from earlier work
[4] = Human alphaherpesvirus 1, GMK, read-out: Antiviral Activity (ΔTCID₅₀)(log₁₀), compound concentration 10 µg/ml, GMK cells
[5] = Human alphaherpesvirus 1, GMK, read-out: Antiviral Activity (ΔTCID₅₀)(log₁₀), compound concentration 20 µg/ml, GMK cells
[6] = compound concentration 10 µg/ml, GMK cells
[7] = compound concentration 50 µg/ml, GMK cells
[8] = Human alphaherpesvirus 1, GMK, read-out: Antiviral Activity (ΔTCID₅₀)(log₁₀), compound concentration 5 µg/ml, GMK cells
[9] = Human alphaherpesvirus 1, GMK, read-out: Antiviral Activity (ΔTCID₅₀)(log₁₀)

Compound	log reduction at 10 µg/mL [1]	log reduction at 10 µg/mL (HSV-1 (Miyama strain); [4])	log reduction at 5 µg/mL [1]	cytotoxicity (GMK cells)	other results
OC(CCN1CCCCC1)(c1ccccc1)C1C2CC3C(C2)C31 (stereo not drawn) [Prep. Ex. 1, (1R*)-1-phenyl-3-piperidino-1-((3'S*)-3-tricyclo[2.2.1.0]heptyl)propan-1-ol hydrochloride]	0.44	0.83			log reduction at 20 µg/mL [1]: > 3.17; log reduction at 50 µg/mL (HSV-1 (Miyama strain); Human alphaherpesvirus 1, GMK, read-out: Antiviral Activity (ΔTCID₅₀)(log₁₀), compound concentration 50 µg/ml, GMK cells): > 3
OC(c1ccc(F)cc1)(C1C2CC3CC(C2)CC1C3)C12CCCN1CCC2 (centres unmarked) [Prep. Ex. 11, 1-(1-azabicyclo[3.3.0]octan-5-yl)-1-(4-fluoropheyl)-1-(2-tricyclo [3.3.1.1^3.7]decyl)methan-1-ol hydrochloride]					Antiviral Activity (ΔTCID₅₀)(log₁₀) (HSV-1 (Miyama strain); compound concentration 5 µg/ml, GMK cells, hydrochloride): 0.00 (-) log₁₀
COc1cccc(C(O)(C2C3CC4CC(C3)CC2C4)C23CCCN2CCC3)c1 (centres unmarked) [Prep. Ex. 19, 1-(1-azabicyclo[3.3.0]octan-5-yl)-1-(3-methoxyphenyl)-1-(2-tricyclo[3.3.1.1³^.7]decyl)methan-1-ol hydrochloride]	0.17	0	0		log reduction at 20 µg/mL [1]: > 3.17; log reduction at 20 µg/mL (HSV-1 (Miyama strain); [5]): > 2
OC(c1ccc(-c2ccccc2)cc1)(C1C2CC3CC(C2)CC1C3)C12CCCN1CCC2 (centres unmarked) [Prep. Ex. 29, 1-(1-azabicyclo[3.3.0]octan-5-yl)-1-(4-biphenyl)-1-(2-tricyclo[3.3.1.1^3.7]decyl)methan-1-ol hydrochloride]	> 3	> 3.17	> 3	>3.17 (+)	cytotoxicity (MDCK cells): >3.00 (+)
(1R*)-1-phenyl-3-piperidino-1-((3'R*)-3-tricyclo[2.2.1.0] heptyl)propan-1-ol hydrochloride [Prep. Ex. 2]					Antiviral Activity (ΔTCID₅₀)(log₁₀) (HSV-1 (Miyama strain); [6]): 0.17 (-) log₁₀; Antiviral Activity (ΔTCID₅₀)(log₁₀) (HSV-1 (Miyama strain); [7]): >3.00 (+) log₁₀
OC(CCN1CCCCC1)(c1ccccc1)C1CC2C=CC1C2 (centres unmarked) [Akineton]					anti influenza virus action (influenza virus [2]): confirmed to have an anti influenza virus action
CC(C(O)(c1ccccc1)C1C2CC3C(C2)C31)C12CCCN1CCC2 (centres unmarked) [Prep. Ex. 6, 2-(1-azabicyclo[3.3.0]octan-5-yl)-1-phenyl-1-(3-tricyclo [2.2.1.0]heptyl)propan-1-ol]					Antiviral Activity (ΔTCID₅₀)(log₁₀) (HSV-1 (Miyama strain); [6]): 1.00 (±) log₁₀
CC1(c2ccc(C(O)(C3C4CC5CC(C4)CC3C5)C34CCCN3CCC4)cc2)OCCS1 (centres unmarked) [Prep. Ex. 30, 1-(1-azabicyclo[3.3.0]octan-5-yl)-1-(4-(2-methyl-1,3-thioxolane-2-yl)phenyl)-1-(2-tricyclo[3.3.1.1^3.7]decyl)methan-1-ol]	> 3	> 3.17	> 3	>3.17 (+)	cytotoxicity (MDCK cells): >3.00 (+)
OC(c1cccc(C(F)(F)F)c1)(C1C2CC3CC(C2)CC1C3)C12CCCN1CCC2 (centres unmarked) [Prep. Ex. 21, 1-(1-azabicyclo[3.3.0]octan-5-yl)-1-(3-trifluoromethylphenyl)-1-(2-tricyclo[3.3.1.1^3.7]decyl)methan-1-ol hydrochloride]	0.27	0.33	0		log reduction at 5 µg/mL (HSV-1 (Miyama strain); [8]): 0.5
(1R*)-1-(1-azabicyclo[3.3.0]octan-5-yl)-1-phenyl-1-((3'R*)-3-tricyclo[2.2.1.0]heptyl)methanol hydrochloride [Prep. Ex. 4]					Antiviral Activity (ΔTCID₅₀)(log₁₀) (HSV-1 (Miyama strain); [6]): 0.66 (-) log₁₀; Antiviral Activity (ΔTCID₅₀)(log₁₀) (HSV-1 (Miyama strain); [7]): 1.33 (±) log₁₀
OC(c1ccccc1)(C1C2CC3C(C2)C31)C12CCCN1CCC2 (stereo not drawn) [Prep. Ex. 3, (1R*)-1-(1-azabicyclo[3.3.0]octan-5-yl)1-phenyl-1-[(3'S*)-3-tricyclo[2.2.1.0]heptyl]methan-1-ol hydrochloride]					Antiviral Activity (ΔTCID₅₀)(log₁₀) (HSV-1 (Miyama strain); [6]): 0.00 (-) log₁₀; Antiviral Activity (ΔTCID₅₀)(log₁₀) (HSV-1 (Miyama strain); [7]): >3.00 (-) log₁₀
OC(c1ccc(C(F)(F)F)cc1)(C1C2CC3CC(C2)CC1C3)C12CCCN1CCC2 (centres unmarked) [Prep. Ex. 17, 1-(1-azabicyclo[3.3.0]octan-5-yl)-1-(4-trifluoromethylphenyl)-1-(2-tricyclo[3.3.1.1³^.7]decyl)methan-1-ol hydrochloride]	0.33	0.33	0.33	0.33 (-)	log reduction at 20 µg/mL [1]: 0.33; log reduction at 20 µg/mL (HSV-1 (Miyama strain); [5]): 0.33
NC12CC3CC(CC(C3)C1)C2 [Amantadine]					efficacy against influenza A virus (influenza A virus): efficacious against influenza A virus; efficacy against influenza B virus (influenza B virus): not against influenza B virus
Cc1ccccc1C(O)(C1C2CC3CC(C2)CC1C3)C12CCCN1CCC2 (centres unmarked) [Prep. Ex. 25, 1-(1-azabicyclo[3.3.0]octan-5-yl)-1-(2-methylphenyl)-1-(2-tricyclo[3.3.1.1^3.7]decyl)methan-1-ol hydrochloride]		> 3		>3.00 (+)	
CC(=O)c1ccc(C(O)(C2C3CC4CC(C3)CC2C4)C23CCCN2CCC3)cc1 (centres unmarked) [Prep. Ex. 32, 1-(4-acetylphenyl)-1-(1-azabicyclo[3.3.0]octan-5-yl)-1-(2-tricyclo[3.3.1.1³^.7]decyl)methan-1-ol hydrochloride]	1	0.33	0.5	0.33 (+)	log reduction at 20 µg/mL [1]: 1.16
CC(N)C12CC3CC(CC(C3)C1)C2 (centres unmarked) [remantadine, Remantadine]					efficacy against influenza A virus (influenza A virus): efficacious against influenza A virus; efficacy against influenza B virus (influenza B virus): not against influenza B virus
OC(c1ccc(F)cc1)(C1C2CC3CC(C2)CC1C3)C12CCCN1CCC2 (centres unmarked) [Prep. Ex. 10, 1-(1-azabicyclo[3.3.0]octan-5-yl)-1-(4-fluoropheyl)-1-(2-tricyclo [3.3.1.1^3.7]decyl)methan-1-ol]	> 3.17	1.17	2		Antiviral Activity (ΔTCID₅₀)(log₁₀) (HSV-1 (Miyama strain); compound concentration 5 µg/ml, GMK cells): 0.83 (-) log₁₀
OC(c1ccccc1)(C1C2CC3CC(C2)CC1C3)C12CCCN1CCC2 (centres unmarked) [Prep. Ex. 8, 1-(1-azabicyclo[3.3.0]octan-5-yl)-1-phenyl-1-(2-tricyclo[3.3. 1.1^3.7]decyl)methan-1-ol]	0.67				log reduction at 20 µg/mL [1]: > 3.5; log reduction at 5 µg/mL (HSV-1 (Miyama strain); [9]): 0.5; log reduction at 10 µg/mL (HSV-1 (Miyama strain); [9]): 0.66; log reduction at 20 µg/mL (HSV-1 (Miyama strain); [9]): 2.66
N#C[N-]c1nncs1.[Na+] [LY253963]					activity against influenza virus in animal tests (influenza virus [3]): resistant to influenza virus in animal tests
OC(CCN1CCCCC1)(c1ccccc1)C1C2CC3C(C2)C31 (centres unmarked) [Norakin]					anti influenza virus action (influenza virus [2]): confirmed to have an anti influenza virus action; anti-viral activity against herpes virus (herpes virus): lack in anti-viral activity against herpes virus
CN(C)c1ccc(C(O)(C2C3CC4CC(C3)CC2C4)C23CCCN2CCC3)cc1 (centres unmarked) [Prep. Ex. 13, 1-(1-azabicyclo[3.3.0]octan-5-yl)-1-(4-dimethylaminophenyl)-1-(2-tricyclo[3.3.1.1^3.7]decyl)methan-1-ol dihydrochloride]	0.17	0.77			log reduction at 20 µg/mL (HSV-1 (Miyama strain); [5]): 3; cytotoxicity (MDCK cells): 0.17 (+)
Cc1ccc(C(O)(C2C3CC4CC(C3)CC2C4)C23CCCN2CCC3)cc1 (centres unmarked) [Prep. Ex. 27, 1-(1-azabicyclo[3.3.0]octan-5-yl)-1-(4-methylphenyl)-1-(2-tricyclo-[3.3.1.1^3.7]decyl)methan-1-ol hydrochloride]	0.17	2.17	0.17		log reduction at 20 µg/mL [1]: 2.17; log reduction at 20 µg/mL (HSV-1 (Miyama strain); [5]): > 3
OC(c1ccc2ccccc2c1)(C1C2CC3CC(C2)CC1C3)C12CCCN1CCC2 (centres unmarked) [Prep. Ex. 9, 1-(1-azabicyclo[3.3.0]octan-5-yl)-1-(2-naphthyl)-1-(2-tricyclo [3.3.1.1^3.7]decyl)methan-1-ol]		2.17		2.17 (-)	log reduction at 5 µg/mL (HSV-1 (Miyama strain); [8]): 1.17
COc1ccccc1C(O)(C1C2CC3CC(C2)CC1C3)C12CCCN1CCC2 (centres unmarked) [Prep. Ex. 23, 1-(1-azabicyclo[3.3.0]octan-5-yl)-1-(2-methoxyphenyl)-1-(2-tricyclo[3.3.1.1^3.7]decyl)methan-1-ol hydrochloride]		0.17		0.17 (+)	
COc1ccc(C(O)(C2C3CC4CC(C3)CC2C4)C23CCCN2CCC3)cc1 (centres unmarked) [Prep. Ex. 15, 1-(1-azabicyclo[3.3.0]octan-5-yl)-1-(4-methoxyphenyl)-1-(2-tricyclo[3.3.1.1^3.7]decyl)methan-1-ol hydrochloride]	> 2.17	0.67	0	0.67 (-)	log reduction at 20 µg/mL [1]: > 3.5

From EP0558321A1 (priority 1992, dated 1993)
